These results are taken from patent US20130252950A1, “TARGETING MTOR SUBSTRATES IN TREATING PROLIFERATIVE DISEASES” (President and Fellows of Harvard College, priority 2010, published 2013).

In experiment [1] the test system is Grb10 mRNA in TSC2−/− cells. Put plainly: Quantitative RT-PCR of Grb10 mRNA. Type of experiment: cell-based, mouse. The note with it: three biological replicates. The text has this: FIG. 3. mTOR-mediated Grb10 phosphorylation is important for Grb10 stability. (A) Grb10 interacts with raptor, but not rictor. HA-tagged Grb10 was co-transfected with Myc-raptor or Myc-rictor in HEK293T cells. Cells were lysed in lysis buffer A, and the lysates were subjected to immunoprecipitation using anti-HA antibody conjugated beads. Raptor and rictor were probed with an antibody against the Myc-tag. (B) Grb10 is phosphorylated by mTOR in vitro. […] Phosphorylation of Grb10 at S501/S503 was detected by using the phospho-specific antibody against these two sites. (C) Long-term rapamycin treatment leads to Grb10 degradation in TSC2−/− cells. […] Grb10 is highly overexpressed in TSC2−/− cells. mRNA level was determined using quantitative RT-PCR based on three biological replicate experiments. […] Endogenous Grb10 was detected using an antibody that preferentially recognizes mouse Grb10 whereas the Grb10 DD mutant (of human origin) was detected using an anti-HA antibody. […]
Total cellular RNA was purified from cultured cells using the RNeasy mini kit (Qiagen) following the manufacturer's protocol. For quantitative real-time PCR (qRT-PCR), RNA was reverse-transcribed using the High-Capacity cDNA Reverse Transcription Kit (Applied Biosystems) according to the manufacturer's instructions. The resulting cDNA was analyzed by qRT-PCR using the QuantiTect SYBR Green qPCR System (Qiagen). […]

In experiment [2] the test system is Grb10 protein in TSC2−/− cells. Put plainly: Immunoblot of Grb10 protein level after long-term treatment. In kind it is cell-based, mouse. The note with it: TSC2−/− MEFs stably expressing HA-tagged Grb10-DD, long-term 20 nM rapamycin. The text has this:
FIG. 3. mTOR-mediated Grb10 phosphorylation is important for Grb10 stability. (A) Grb10 interacts with raptor, but not rictor. HA-tagged Grb10 was co-transfected with Myc-raptor or Myc-rictor in HEK293T cells. Cells were lysed in lysis buffer A, and the lysates were subjected to immunoprecipitation using anti-HA antibody conjugated beads. Raptor and rictor were probed with an antibody against the Myc-tag. (B) Grb10 is phosphorylated by mTOR in vitro. […] Phosphorylation of Grb10 at S501/S503 was detected by using the phospho-specific antibody against these two sites. (C) Long-term rapamycin treatment leads to Grb10 degradation in TSC2−/− cells. Note that Grb10 protein expression levels inversely correlated with Akt activity. Grb10 is highly overexpressed in TSC2−/− cells. mRNA level was determined using quantitative RT-PCR based on three biological replicate experiments. (D) Knockdown of raptor in TSC2−/− cells decreased Grb10 protein level. Cells were starved overnight and the lysates were probed with the antibodies indicated. (E) Grb10 is highly overexpressed in TSC2−/− cells. (F) S501A/S503A mutant is unstable compared with the wild-type or the S501D/S503D mutant. The same amount of DNA was transfected into HEK293T cells. […] Endogenous Grb10 was detected using an antibody that preferentially recognizes mouse Grb10 whereas the Grb10 DD mutant (of human origin) was detected using an anti-HA antibody.
FIG. 9. Phosphorylation of Grb10 at S501/S503 regulates its stability. […] Preincubation of the antibody with the […] completely eliminated the immunoreactivity. (B) Further validation of the phospho-specific antibody raised against the Grb10 S501/S503 sites. Grb10 WT, S501A/S503A (AA) and S501D/S503D (DD) were transfected into HEK239T cells and were probed with the antibody. Note that this antibody detected wild type (WT) Grb10, but neither of the mutant proteins. (C) Treatment of TSC2−/− cells with various mTOR kinase inhibitors led to Grb10 degradation. […] (E) Grb10 is highly overexpressed in TSC1−/− cells compared with their wild-type counterparts. (F) rapamycin treatment of TSC2−/− cells stably expressing wild type (WT) Grb10 led to lower levels of both endogenous and exogenous Grb10.
In addition, long-term treatment with mTOR kinase inhibitors, including LY-294002, NVP-BEZ235, torin and pp 242 all led to reduced Grb10 protein expression (FIG. 9C). Similar results were obtained in TSC1−/− MEFs (FIG. 9D). In contrast, we found Grb10 was highly overexpressed in TSC2−/− and TSC1−/− MEFs compared with their wild-type counterparts (FIGS. 3E and 9E), correlating with elevated mTORC1 activity in these cells. […]

SMILES strings stand for the structures.

For the compound `CO[C@H]1C[C@@H]2CC[C@@H](C)[C@@](O)(O2)C(=O)C(=O)N2CCCC[C@H]2C(=O)O[C@H]([C@H](C)C[C@@H]2CC[C@@H](O)[C@H](OC)C2)CC(=O)[C@H](C)/C=C(\C)[C@@H](O)[C@@H](OC)C(=O)[C@H](C)C[C@H](C)/C=C/C=C/C=C/1C` [rapamycin], the “decrease in Grb10 mRNA levels after long-term rapamycin” value in experiment [1] is “approximately 2 fold”. The “Grb10 S501D/S503D (DD) mutant protein levels” value in experiment [2] is “no effect”.
